Assay results: ChEMBL document CHEMBL1142199, “Caenorhabditis elegans as a model to determine fitness of antibiotic-resistant Salmonella enterica serovar typhimurium” (2007)
In brackets after ≈: the same amount, converted by molar mass.

Columns and labels:
Assay type in all cases: functional, Salmonella enterica subsp. enterica serovar Typhimurium
Salmonella typhimurium [1] = experiment: Antimicrobial activity against Salmonella enterica serovar Typhimurium SMP807 in Caenorhabditis elegans
Salmonella typhimurium [2] = experiment: Antimicrobial activity against Salmonella enterica serovar Typhimurium SMP816 in Caenorhabditis elegans
Salmonella typhimurium [3] = experiment: Antimicrobial activity against Salmonella enterica serovar Typhimurium JB127 in Caenorhabditis elegans
Salmonella typhimurium [4] = experiment: Antimicrobial activity against Salmonella enterica serovar Typhimurium JB1855 in Caenorhabditis elegans
Salmonella typhimurium [5] = experiment: Antimicrobial activity against Salmonella enterica serovar Typhimurium JB1850 in Caenorhabditis elegans
Salmonella typhimurium [6] = experiment: Antimicrobial activity against Salmonella enterica serovar Typhimurium SMP972 in Caenorhabditis elegans
Salmonella typhimurium [7] = experiment: Antimicrobial activity against Salmonella enterica serovar Typhimurium SMP973 in Caenorhabditis elegans
Salmonella typhimurium [8] = experiment: Antimicrobial activity against Salmonella enterica serovar Typhimurium DA8340 in Caenorhabditis elegans
Salmonella typhimurium [9] = experiment: Antimicrobial activity against Salmonella enterica serovar Typhimurium DA8325 in Caenorhabditis elegans
Salmonella typhimurium [10] = experiment: Antimicrobial activity against Salmonella enterica serovar Typhimurium DA8326 in Caenorhabditis elegans
Salmonella typhimurium [11] = experiment: Antimicrobial activity against Salmonella enterica serovar Typhimurium JB393 in Caenorhabditis elegans

With `CO[C@H]1/C=C/O[C@@]2(C)Oc3c(C)c(O)c4c(O)c(c(/C=N/N5CCN(C)CC5)c(O)c4c3C2=O)NC(=O)/C(C)=C\C=C\[C@H](C)[C@H](O)[C@@H](C)[C@@H](O)[C@@H](C)[C@H](OC(C)=O)[C@@H]1C` [RIFAMPIN] the MIC (Salmonella typhimurium [1]) was greater than 256 mg/L and the MIC (Salmonella typhimurium [2]) was greater than 256 mg/L.

`CN[C@@H]1[C@H](O[C@H]2[C@H](O[C@H]3[C@H](O)[C@@H](O)[C@H](N=C(N)N)[C@@H](O)[C@@H]3N=C(N)N)O[C@@H](C)[C@]2(O)C=O)O[C@@H](CO)[C@H](O)[C@H]1O` [STREPTOMYCIN] was tested, and the MIC (Salmonella typhimurium [3]) was greater than 1020 mg/L.

For `C/C(=C\C(=O)OCCCCCCCCC(=O)O)C[C@@H]1OC[C@H](C[C@@H]2O[C@H]2[C@@H](C)[C@H](C)O)[C@@H](O)[C@H]1O` [MUPIROCIN], the MIC (Salmonella typhimurium [4]) was greater than 1020 mg/L and the MIC (Salmonella typhimurium [5]) was greater than 1020 mg/L.

`CCn1cc(C(=O)O)c(=O)c2ccc(C)nc21` [NALIDIXIC ACID] was tested, and the MIC (Salmonella typhimurium [6]) was 64 mg/L (≈ 276 µM) and the MIC (Salmonella typhimurium [7]) was greater than 256 mg/L.

With `CCCCC[C@H](CC(=O)NO)C(=O)N[C@H](C(=O)N1CCC[C@H]1CO)C(C)C` [ACTINONIN] the MIC (Salmonella typhimurium [8]) was greater than 1020 mg/L, the MIC (Salmonella typhimurium [9]) was greater than 1020 mg/L and the MIC (Salmonella typhimurium [10]) was greater than 1020 mg/L.

`CC(=O)O[C@H]1C[C@@]2(C)[C@@H](C[C@@H](O)[C@H]3[C@@]4(C)CC[C@@H](O)[C@@H](C)[C@@H]4CC[C@@]32C)/C1=C(\CCC=C(C)C)C(=O)O` [FUSIDIC ACID] was tested, and the MIC (Salmonella typhimurium [11]) was 2400 mg/L (≈ 4640 µM).
